According to paper PMC4364940, “Human β-Defensin 4 with Non-Native Disulfide Bridges Exhibit Antimicrobial Activity” (PLoS ONE, 2015):
Where two headings read alike, the source gives them in different places. Positions of bridges follow the written chain, without caps; N, C: chain ends. Residues, ends and D or L forms follow the SMILES beside them. *: point of attachment. Acm = CC(=O)NC*; tBu = CC(C)(C)*

Key:
[1] = test system: Staphylococcus aureus (NCTC 8530); conditions: pH 7.4
[2] = test system: Escherichia coli (MG1655); conditions: pH 7.4
E. coli [3] = format: cell-based, Escherichia coli
P. aeruginosa [4] = format: cell-based, Pseudomonas aeruginosa; conditions: peptide treated cells plated at fixed time intervals during 2 hrs of incubation
Description: The antibacterial activity of peptides was examined against Gram-negative bacteria Escherichia coli (MG1655), Pseudomonas aeruginosa (NCTC 6750) and Gram-positive bacteria Staphylococcus aureus (NCTC 8530) using colony counting assay. Bacteria were sub-cultured on nutrient broth (Difco, Detroit, MI, US) at 37°C to mid-logarithmic phase from an overnight grown culture. The cells were harvested and washed with 10 mM sodium phosphate buffer (pH 7.4). 100 μl of suspension containing 10^6 cfu/ml was incubated with varying concentration of peptides for 2 hrs at 37°C. The cells were spread on nutrient agar plates and incubated for 14–18 hrs at 37°C. The numbers of colony forming units (cfu) was counted and minimum concentration at which more than 99% of killing observed was taken as lethal concentration (LC). Fungicidal activity against Candida albicans (ATCC 18804) was also determined as described for the bacteria. […] The effect of loss of proton motif force (pmf) in bacteria and C. albicans on the antimicrobial activity of the peptides was determined by adding the metabolic inhibitor like carbonyl cyanide m-chlorophenylhydrazone (CCCP) (50 μM) into the cell suspension 20 mins prior to the peptides treatment. The rate of killing with respect to time was determined by plating the peptide treated cells at fixed time intervals during 2 hrs of incubation. […]

[5] = test system: Candida albicans (ATCC 18804); conditions: ATCC 18804, 2 h
E. coli [6] = format: cell-based, Escherichia coli; remark: listed apart in the source
S. aureus = format: cell-based, Staphylococcus aureus
[7] = test system: Pseudomonas aeruginosa (NCTC 6750); conditions: NCTC 6750, 2 h, pH 7.4
P. aeruginosa [8] = assay: Salt sensitivity assay (150 mM NaCl); format: cell-based, Pseudomonas aeruginosa; conditions: peptides at lethal concentrations

CC[C@H](C)[C@@H]1NC(=O)[C@H](CCCNC(=N)N)NC(=O)[C@H](Cc2ccc(O)cc2)NC(=O)[C@H](CCC(=O)O)NC(=O)[C@H](CCC(N)=O)NC(=O)[C@H](CO)NC(=O)[C@H](CCCNC(=N)N)NC(=O)[C@H](CCCCN)NC(=O)[C@H](CCCCN)NC(=O)[C@H](CCCNC(=N)N)NC(=O)[C@@H](NC(=O)[C@H](CCCNC(=N)N)NC(=O)[C@H](C)NC(=O)[C@@H](NC(=O)CNC(=O)[C@H](Cc2ccc(O)cc2)NC(=O)CNC(=O)[C@H](CO)NC(=O)[C@H](CO)NC(=O)[C@@H](NC(=O)[C@H](CCCNC(=N)N)NC(=O)[C@H](CC(=O)O)NC(=O)[C@H](CC(C)C)NC(=O)[C@@H](N)CCC(=O)O)[C@@H](C)CC)[C@@H](C)O)CSSC[C@@H](C(=O)N[C@@H](CC(C)C)C(=O)N[C@@H](CCCNC(=N)N)C(=O)N[C@@H](CCCCN)C(=O)O)NC(=O)[C@H](CO)NC(=O)[C@H](C)NC(=O)[C@H](Cc2ccc(O)cc2)NC(=O)[C@H]([C@@H](C)O)NC(=O)[C@H](CC(N)=O)NC(=O)[C@@H]2CCCN2C(=O)[C@H](CO)NC(=O)[C@H](CCCNC(=N)N)NC(=O)CNC1=O [H4-1d[S]ΔEF] (H-ELDRISSGYGTARCRKKRSQEYRIGRSPNTYASCLRK-OH; disulfide 14-34; N-terminus and C-terminus assumed)
lethal concentration (LC) against S. aureus [1]: 5 µM
lethal concentration (LC) against E. coli [2]: 3 µM

CC[C@H](C)[C@@H]1NC(=O)[C@H](CCCNC(=N)N)NC(=O)[C@H](Cc2ccc(O)cc2)NC(=O)[C@H](CCC(=O)O)NC(=O)[C@H](CCC(N)=O)NC(=O)[C@H](CO)NC(=O)[C@H](CCCNC(=N)N)NC(=O)[C@@H]2CSSC[C@@H](C(=O)N[C@@H](CC(C)C)C(=O)N[C@@H](CCCNC(=N)N)C(=O)N[C@@H](CCCCN)C(=O)O)NC(=O)[C@@H]3CSSC[C@H](NC(=O)[C@@H](NC(=O)[C@H](CCCNC(=N)N)NC(=O)[C@H](CC(=O)O)NC(=O)[C@H](CC(C)C)NC(=O)[C@@H](N)CCC(=O)O)[C@@H](C)CC)C(=O)NCC(=O)N[C@@H](Cc4ccc(O)cc4)C(=O)NCC(=O)N[C@@H]([C@@H](C)O)C(=O)N[C@@H](C)C(=O)N[C@@H](CCCNC(=N)N)C(=O)N[C@@H](CSSC[C@H](NC(=O)[C@H](CCCNC(=N)N)NC(=O)CNC1=O)C(=O)N1CCC[C@H]1C(=O)N[C@@H](CC(N)=O)C(=O)N[C@@H]([C@@H](C)O)C(=O)N[C@@H](Cc1ccc(O)cc1)C(=O)N[C@@H](C)C(=O)N3)C(=O)N[C@@H](CCCNC(=N)N)C(=O)N[C@@H](CCCCN)C(=O)N[C@@H](CCCCN)C(=O)N2 [HBD4, Human β-defensin 4] (H-ELDRICGYGTARCRKKCRSQEYRIGRCPNTYACCLRK-OH; disulfide 6-33, 13-27, 17-34; N-terminus and C-terminus assumed)
activity against E. coli in the presence of 150 mM NaCl (E. coli [3]): significant loss in activity
salt sensitivity against E. coli in the absence of pmf (E. coli [3]): attenuation of activity by NaCl is not observed
rate of killing of P. aeruginosa (P. aeruginosa [4]): more rapidly as compared to the analogs
lethal concentration (LC) against S. aureus ([1]; NCTC 8530, 2 h): 15 (0.47) μM
minimum fungicidal concentration (MFC) against C. albicans [5]: 7.5 (0.91) μM
time of incubation for killing of E. coli (E. coli [6]): ≤ 30 min
activity against S. aureus in the presence of 150 mM NaCl (S. aureus): significant loss in activity
lethal concentration (LC) against P. aeruginosa [7]: 12 (1.35) μM
lethal concentration (LC) against E. coli ([2]; MG1655, 2 h): 5 (0.53) μM
activity against P. aeruginosa in the presence of 150 mM NaCl (P. aeruginosa [8]): significant loss in activity

CC[C@H](C)[C@@H]1NC(=O)[C@H](CCCNC(=N)N)NC(=O)[C@H](Cc2ccc(O)cc2)NC(=O)[C@H](CCC(=O)O)NC(=O)[C@H](CCC(N)=O)NC(=O)[C@H](CO)NC(=O)[C@H](CCCNC(=N)N)NC(=O)[C@H](CCCCN)NC(=O)[C@H](CCCCN)NC(=O)[C@H](CCCNC(=N)N)NC(=O)[C@@H](NC(=O)[C@H](CCCNC(=N)N)NC(=O)[C@H](C)NC(=O)[C@@H](NC(=O)CNC(=O)[C@H](Cc2ccc(O)cc2)NC(=O)CNC(=O)[C@H](CSC(C)(C)C)NC(=O)[C@H](CSCNC(C)=O)NC(=O)[C@@H](NC(=O)[C@H](CCCNC(=N)N)NC(=O)[C@H](CC(=O)O)NC(=O)[C@H](CC(C)C)NC(=O)[C@@H](N)CCC(=O)O)[C@@H](C)CC)[C@@H](C)O)CSSC[C@@H](C(=O)N[C@@H](CC(C)C)C(=O)N[C@@H](CCCNC(=N)N)C(=O)N[C@@H](CCCCN)C(=O)O)NC(=O)[C@H](CSCNC(C)=O)NC(=O)[C@H](C)NC(=O)[C@H](Cc2ccc(O)cc2)NC(=O)[C@H]([C@@H](C)O)NC(=O)[C@H](CC(N)=O)NC(=O)[C@@H]2CCCN2C(=O)[C@H](CSC(C)(C)C)NC(=O)[C@H](CCCNC(=N)N)NC(=O)CNC1=O [Peptide H4-1dΔEF] (H-ELDRIC(Acm)C(tBu)GYGTARCRKKRSQEYRIGRC(tBu)PNTYAC(Acm)CLRK-OH; disulfide 14-34; N-terminus and C-terminus assumed)
lethal concentration (LC) against S. aureus [1]: 3.5 µM
lethal concentration (LC) against E. coli [2]: 2.5 µM

CC[C@H](C)[C@@H]1NC(=O)[C@H](CCCNC(=N)N)NC(=O)[C@H](Cc2ccc(O)cc2)NC(=O)[C@H](CCC(=O)O)NC(=O)[C@H](CCC(N)=O)NC(=O)[C@H](CO)NC(=O)[C@H](CCCNC(=N)N)NC(=O)[C@H](CCCCN)NC(=O)[C@H](CCCCN)NC(=O)[C@H](CCCNC(=N)N)NC(=O)[C@@H](NC(=O)[C@H](CCCNC(=N)N)NC(=O)[C@H](C)NC(=O)[C@@H](NC(=O)CNC(=O)[C@H](Cc2ccc(O)cc2)NC(=O)CNC(=O)[C@H](CO)NC(=O)[C@H](CO)NC(=O)[C@@H](NC(=O)[C@H](CCCNC(=N)N)NC(=O)[C@H](CC(=O)O)NC(=O)[C@H](CC(C)C)NC(=O)[C@H](CCC(=O)O)NC(=O)[C@H](Cc2ccccc2)NC(=O)[C@@H](N)CCC(=O)O)[C@@H](C)CC)[C@@H](C)O)CSSC[C@@H](C(=O)N[C@@H](CC(C)C)C(=O)N[C@@H](CCCNC(=N)N)C(=O)N[C@@H](CCCCN)C(=O)O)NC(=O)[C@H](CO)NC(=O)[C@H](C)NC(=O)[C@H](Cc2ccc(O)cc2)NC(=O)[C@H]([C@@H](C)O)NC(=O)[C@H](CC(N)=O)NC(=O)[C@@H]2CCCN2C(=O)[C@H](CO)NC(=O)[C@H](CCCNC(=N)N)NC(=O)CNC1=O [H4-1d[S]] (H-EFELDRISSGYGTARCRKKRSQEYRIGRSPNTYASCLRK-OH; disulfide 16-36)
lethal concentration (LC) against S. aureus [1]: 5 µM
lethal concentration (LC) against E. coli [2]: 3 µM
